Assay results: PubChem BioAssay (NCI)
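Growth conditions: 96-well plates. Treatment: test compound, 48 hours, 5 concentrations. Analysis: linear interpolation between bracketing concentrations; unreached endpoints set to highest concentration. At the GI50, growth is halved. TGI: concentration producing complete growth inhibition.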

Experiments:
Experiment in all cases: growth of human tumour cells (NCI), 48 h
M14 melanoma = test system: M14 melanoma
OVCAR-4 ovarian = test system: OVCAR-4 ovarian
BT-549 breast = test system: BT-549 breast
IGROV1 ovarian = test system: IGROV1 ovarian
A549 NSCLC = test system: A549 NSCLC
MALME-3M melanoma = test system: MALME-3M melanoma
UO-31 renal = test system: UO-31 renal
786-0 renal = test system: 786-0 renal
COLO 205 colon = test system: COLO 205 colon
HOP-92 NSCLC = test system: HOP-92 NSCLC
HS 578T breast = test system: HS 578T breast
NCI-H226 lung = test system: NCI-H226 lung
NCI-H23 lung = test system: NCI-H23 lung
UACC-257 melanoma = test system: UACC-257 melanoma
NCI-H460 lung = test system: NCI-H460 lung
PC-3 prostate = test system: PC-3 prostate
SR leukemia = test system: SR leukemia
OVCAR-5 ovarian = test system: OVCAR-5 ovarian
NCI-H522 lung = test system: NCI-H522 lung
RPMI-8226 leukemia = test system: RPMI-8226 leukemia
EKVX NSCLC = test system: EKVX NSCLC
UACC-62 melanoma = test system: UACC-62 melanoma
OVCAR-8 ovarian = test system: OVCAR-8 ovarian
CAKI-1 renal = test system: CAKI-1 renal
OVCAR-3 ovarian = test system: OVCAR-3 ovarian
HT29 colon = test system: HT29 colon
HCT-116 colon = test system: HCT-116 colon
HCT-15 colon = test system: HCT-15 colon
MOLT-4 leukemia = test system: MOLT-4 leukemia
SN12C renal = test system: SN12C renal
K-562 leukemia = test system: K-562 leukemia
MDA-MB-231 breast = test system: MDA-MB-231 breast
HCC-2998 colon = test system: HCC-2998 colon
SNB-19 CNS = test system: SNB-19 CNS
KM12 colon = test system: KM12 colon
MDA-MB-435 = test system: MDA-MB-435
NCI/ADR-RES ovarian = test system: NCI/ADR-RES ovarian
DU-145 prostate = test system: DU-145 prostate
MCF7 breast = test system: MCF7 breast
LOX IMVI melanoma = test system: LOX IMVI melanoma
A498 renal = test system: A498 renal
SK-MEL-2 melanoma = test system: SK-MEL-2 melanoma
U251 CNS = test system: U251 CNS
SF-268 CNS = test system: SF-268 CNS
HOP-62 NSCLC = test system: HOP-62 NSCLC
CCRF-CEM leukemia = test system: CCRF-CEM leukemia
TK-10 renal = test system: TK-10 renal
ACHN renal = test system: ACHN renal
SW-620 colon = test system: SW-620 colon
T-47D breast = test system: T-47D breast
SK-OV-3 ovarian = test system: SK-OV-3 ovarian
SK-MEL-5 melanoma = test system: SK-MEL-5 melanoma
SK-MEL-28 melanoma = test system: SK-MEL-28 melanoma
SNB-75 CNS = test system: SNB-75 CNS
RXF 393 renal = test system: RXF 393 renal
SF-539 CNS = test system: SF-539 CNS
SF-295 CNS = test system: SF-295 CNS

COc1ccc2nc(NC(=O)COc3cc(/C=C\c4cc(OC)c(OC)c(OC)c4)ccc3OC)sc2c1
GI50 (M14 melanoma): 4.33 µM | TGI (M14 melanoma): > 100 µM | GI50 (OVCAR-4 ovarian): 5.31 µM | TGI (OVCAR-4 ovarian): > 100 µM | GI50 (BT-549 breast): 21.2 µM | TGI (BT-549 breast): > 100 µM | GI50 (IGROV1 ovarian): 7 µM | TGI (IGROV1 ovarian): > 100 µM | GI50 (A549 NSCLC): 5.18 µM | TGI (A549 NSCLC): > 100 µM | GI50 (MALME-3M melanoma): > 100 µM | TGI (MALME-3M melanoma): > 100 µM | GI50 (UO-31 renal): 4.31 µM | TGI (UO-31 renal): > 100 µM | GI50 (786-0 renal): 7.52 µM | TGI (786-0 renal): > 100 µM | GI50 (COLO 205 colon): 3.89 µM | TGI (COLO 205 colon): > 100 µM | GI50 (HOP-92 NSCLC): 6.28 µM | TGI (HOP-92 NSCLC): > 100 µM | GI50 (HS 578T breast): 4.15 µM | TGI (HS 578T breast): > 100 µM | GI50 (NCI-H226 lung): 4.51 µM | TGI (NCI-H226 lung): > 100 µM | GI50 (NCI-H23 lung): 3.91 µM | TGI (NCI-H23 lung): > 100 µM | GI50 (UACC-257 melanoma): 63.9 µM | TGI (UACC-257 melanoma): > 100 µM | GI50 (NCI-H460 lung): 3.73 µM | TGI (NCI-H460 lung): > 100 µM | GI50 (PC-3 prostate): 4.45 µM | TGI (PC-3 prostate): > 100 µM | GI50 (SR leukemia): 3.69 µM | TGI (SR leukemia): > 100 µM | GI50 (OVCAR-5 ovarian): 5.89 µM | TGI (OVCAR-5 ovarian): > 100 µM | GI50 (NCI-H522 lung): 3.09 µM | TGI (NCI-H522 lung): > 100 µM | GI50 (RPMI-8226 leukemia): 5.43 µM | TGI (RPMI-8226 leukemia): > 100 µM | GI50 (EKVX NSCLC): 5.11 µM | TGI (EKVX NSCLC): > 100 µM | GI50 (UACC-62 melanoma): 5.93 µM | TGI (UACC-62 melanoma): > 100 µM | GI50 (OVCAR-8 ovarian): 5.28 µM | TGI (OVCAR-8 ovarian): > 100 µM | GI50 (CAKI-1 renal): 3.2 µM | TGI (CAKI-1 renal): > 100 µM | GI50 (OVCAR-3 ovarian): 2.17 µM | TGI (OVCAR-3 ovarian): 5.02 µM | GI50 (HT29 colon): 3.34 µM | TGI (HT29 colon): > 100 µM | GI50 (HCT-116 colon): 3.7 µM | TGI (HCT-116 colon): > 100 µM | GI50 (HCT-15 colon): 2.89 µM | TGI (HCT-15 colon): > 100 µM | GI50 (MOLT-4 leukemia): 3.87 µM | TGI (MOLT-4 leukemia): > 100 µM | GI50 (SN12C renal): 5.75 µM | TGI (SN12C renal): > 100 µM | GI50 (K-562 leukemia): 3.6 µM | TGI (K-562 leukemia): > 100 µM | GI50 (MDA-MB-231 breast): 5.4 µM | TGI (MDA-MB-231 breast): > 100 µM | GI50 (HCC-2998 colon): 7.35 µM | TGI (HCC-2998 colon): > 100 µM | GI50 (SNB-19 CNS): 6.3 µM | TGI (SNB-19 CNS): > 100 µM | GI50 (KM12 colon): 3.12 µM | TGI (KM12 colon): 21.2 µM | GI50 (MDA-MB-435): 1.16 µM | TGI (MDA-MB-435): 6.44 µM | GI50 (NCI/ADR-RES ovarian): 2.3 µM | TGI (NCI/ADR-RES ovarian): 7.46 µM | GI50 (DU-145 prostate): 2.04 µM | TGI (DU-145 prostate): 6.96 µM | GI50 (MCF7 breast): 2.88 µM | TGI (MCF7 breast): > 100 µM | GI50 (LOX IMVI melanoma): 4.17 µM | TGI (LOX IMVI melanoma): > 100 µM | GI50 (A498 renal): 3.5 µM | TGI (A498 renal): > 100 µM | GI50 (SK-MEL-2 melanoma): 4.07 µM | TGI (SK-MEL-2 melanoma): > 100 µM | GI50 (U251 CNS): 4 µM | TGI (U251 CNS): > 100 µM | GI50 (SF-268 CNS): 4.31 µM | TGI (SF-268 CNS): > 100 µM | GI50 (HOP-62 NSCLC): 23.3 µM | TGI (HOP-62 NSCLC): > 100 µM | GI50 (CCRF-CEM leukemia): 3.87 µM | TGI (CCRF-CEM leukemia): > 100 µM | GI50 (TK-10 renal): 7.54 µM | TGI (TK-10 renal): > 100 µM | GI50 (ACHN renal): 7.77 µM | TGI (ACHN renal): > 100 µM | GI50 (SW-620 colon): 5.1 µM | TGI (SW-620 colon): > 100 µM | GI50 (T-47D breast): 4.03 µM | TGI (T-47D breast): > 100 µM | GI50 (SK-OV-3 ovarian): 4.69 µM | TGI (SK-OV-3 ovarian): > 100 µM | GI50 (SK-MEL-5 melanoma): 2.68 µM | TGI (SK-MEL-5 melanoma): 38.4 µM | GI50 (SK-MEL-28 melanoma): 4.41 µM | TGI (SK-MEL-28 melanoma): > 100 µM

CC(Cc1ccc(O)cc1)NCC(O)c1ccc(O)c(O)c1 (stereo unspecified)
TGI (M14 melanoma): > 100 µM | TGI (OVCAR-4 ovarian): > 100 µM | TGI (BT-549 breast): > 100 µM | TGI (SNB-75 CNS): > 100 µM | TGI (IGROV1 ovarian): > 100 µM | TGI (A549 NSCLC): > 100 µM | TGI (MALME-3M melanoma): > 100 µM | TGI (UO-31 renal): > 100 µM | TGI (786-0 renal): > 100 µM | TGI (HOP-92 NSCLC): > 100 µM | TGI (HS 578T breast): > 100 µM | TGI (NCI-H226 lung): > 100 µM | TGI (NCI-H23 lung): > 100 µM | TGI (UACC-257 melanoma): > 100 µM | TGI (NCI-H460 lung): > 100 µM | TGI (PC-3 prostate): > 100 µM | TGI (SR leukemia): > 100 µM | TGI (RXF 393 renal): > 100 µM | TGI (OVCAR-5 ovarian): > 100 µM | TGI (NCI-H522 lung): > 100 µM | TGI (RPMI-8226 leukemia): > 100 µM | TGI (EKVX NSCLC): > 100 µM | TGI (SF-539 CNS): > 100 µM | TGI (UACC-62 melanoma): > 100 µM | TGI (OVCAR-8 ovarian): > 100 µM | TGI (CAKI-1 renal): > 100 µM | TGI (OVCAR-3 ovarian): > 100 µM | TGI (HT29 colon): > 100 µM | TGI (HCT-116 colon): > 100 µM | TGI (HCT-15 colon): > 100 µM | TGI (MOLT-4 leukemia): > 100 µM | TGI (SN12C renal): > 100 µM | TGI (K-562 leukemia): > 100 µM | TGI (MDA-MB-231 breast): > 100 µM | TGI (SNB-19 CNS): > 100 µM | TGI (KM12 colon): > 100 µM | TGI (MDA-MB-435): > 100 µM | TGI (NCI/ADR-RES ovarian): > 100 µM | TGI (DU-145 prostate): > 100 µM | TGI (MCF7 breast): > 100 µM | TGI (LOX IMVI melanoma): > 100 µM | TGI (A498 renal): > 100 µM | TGI (SK-MEL-2 melanoma): > 100 µM | TGI (U251 CNS): > 100 µM | TGI (SF-268 CNS): > 100 µM | TGI (HOP-62 NSCLC): > 100 µM | TGI (CCRF-CEM leukemia): > 100 µM | TGI (TK-10 renal): > 100 µM | TGI (ACHN renal): > 100 µM | TGI (SW-620 colon): > 100 µM | TGI (T-47D breast): > 100 µM | TGI (SK-OV-3 ovarian): > 100 µM | TGI (SF-295 CNS): > 100 µM | TGI (SK-MEL-5 melanoma): > 100 µM | TGI (SK-MEL-28 melanoma): > 100 µM
